The source of these data is US10421781B2, “Antimicrobial peptide and use thereof” (NOVACELL TECHNOLOGY INC., priority 2015, dated 2019).

Assay [1] is described as follows: antibacterial activity of N-terminally lipid-modified peptides. The conditions noted are these: compared with peptides carrying other lipid groups (palmitoyl etc.) at the N-terminus. It is filed as cell-based. An excerpt:
In order to further improve the antibacterial activity of the peptides that underwent the basic screening in Example 1, the present inventors have examined the antibacterial activity of these peptides by synthesizing modified peptides in which various lipid components, such as a palmitoyl group, an octanoyl group, etc., were attached to the N-terminus of these peptides.

The subject of another assay is Pseudomonas aeruginosa. As to the kind of experiment: antibacterial test in nutrient broth (absorbance at 600 nm). The assay is classed as cell-based. As to the method:
(§1) In order to further improve the antibacterial activity of the peptides prepared in Example 2, an antibacterial test was performed. Gram-positive bacteria Staphylococcus epidermidis and Staphylococcus aureus) and gram-negative bacteria (Pseudomonas aeruginosa and E. coli) were prepared, streaked on agar plate medium using a four-quadrant sequential streak technique, and cultured in a 36° C. incubator overnight. On the next day, the strain colonies on the agar plate medium were inoculated into nutrient broth (3 mL) and cultured overnight at 36° C. and 220 rpm in a shaking incubator. On the next day, the bacteria culture was diluted and the absorbance at 600 nm was measured and adjusted to 0.5. Then, the bacteria culture was diluted in nutrient broth in a 1:100 ratio. Then, the peptides prepared in Example 2 were sequentially diluted in nutrient broth at concentrations of 0 μM, 1.25 μM, 2.5 μM, 5 μM, 10 μM, and 20 μM in an amount of 1 mL, respectively, and 1 mL of the diluted bacteria was inoculated, and cultured overnight at 36° C. and 220 rpm in a shaking incubator for 18 hours. Then, the absorbance was measured at 600 nm and the results were analyzed.

The test system of the next assay is Staphylococcus aureus. Described as above. The assay is classed as cell-based. As to the method:
as §1

Assay [2] has as its system Staphylococcus epidermidis. The assay is described as above. The assay is classed as cell-based. As to the method:
as §1

Another assay deals with E. coli. Described as above. The assay is classed as cell-based, Escherichia coli. As to the method: as §1
Another assay has as its target T1, FPR2 (Homo sapiens, UniProt P25090).
T1 construct: expressed in transfected cells; host or cells: RBL cells overexpressing FPR2 (FPR2-RBL)
T1 sequence (P25090 1-351): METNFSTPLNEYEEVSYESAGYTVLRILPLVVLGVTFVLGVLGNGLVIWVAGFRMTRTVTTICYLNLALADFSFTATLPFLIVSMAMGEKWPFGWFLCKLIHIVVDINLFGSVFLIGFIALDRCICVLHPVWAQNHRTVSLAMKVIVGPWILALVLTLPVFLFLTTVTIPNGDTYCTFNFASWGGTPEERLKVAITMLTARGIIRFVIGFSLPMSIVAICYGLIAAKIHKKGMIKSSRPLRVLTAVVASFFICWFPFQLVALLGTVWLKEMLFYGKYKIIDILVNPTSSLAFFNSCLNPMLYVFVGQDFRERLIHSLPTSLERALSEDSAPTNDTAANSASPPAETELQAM
As to the kind of experiment: intracellular calcium ions (Fura-2/AM) in RBL cells overexpressing FPR2. The assay is classed as cell-based. An excerpt: To examine whether the peptide according to an embodiment of the present invention activates the in vivo immunological function of a living organism, the present inventors observed the changes in calcium ion permeability. Specifically, they measured the concentration of intracellular calcium ions to examine whether the peptide activates FPR2. To this end, the present inventors used RBL cells in which FPR2 was not expressed, RBL cells in which FPR1 was overexpressed (FPR1-RBL), and RBL cells in which FPR2 was overexpressed, and used Fura-2/AM, a staining material having a strong binding affinity for calcium, as a method for sensitive measurement of the release of intracellular calcium ions. […] Approximately 2×10^6 cells were taken each time and harvested by rapid centrifugation, and resuspended in 1 mL of Locke solution in which EGTA was added but no calcium ions were added, and the absorbance ratios at two wavelengths of 340 nm and 380 nm were monitored on a spectrophotometer. After treating with the peptide of the present invention at different concentrations (1 μM, 0.1 μM, and 0.01 μM) at intervals of about 1 minute, the difference in absorbance at two wavelengths of 340 nm and 380 nm was examined and this was later converted to the concentration of calcium ions freed into the cells according to the method of Grynkiewicz.
(A change in cytosolic calcium serves as a functional read-out for many receptors and channels.)

The subject of assay [3] is atopic dermatitis induced by capsaicin (Neo-Cap). Briefly: Neo-Cap model of atopic dermatitis induced by capsaicin. It is filed as in vivo, Sprague Dawley rats. Conditions: 10 μM applied daily on back and ears. As to the method:
As such, to confirm whether the peptide according to an embodiment of the present invention can actually treat immune-related diseases by activating immunological functions in vivo, the present inventors examined whether the symptoms of atopic dermatitis can be ameliorated by treating the peptide on the animal model of atopic dermatitis. […]
In Neo-Cap model, the dermatitis score was measured two weeks after the injection of capsaicin, and the control group (PBS) and NCP112 were applied daily on the back (200 μL) and both ears (50 μL) at a concentration of 10 μM, and the dermatitis score was measured at one-week intervals for three weeks. The dermatitis score was measured on the face, ears, back (total) and ears, and back (application site) according to skin conditions, and the score was standardized by setting the score at the second week (i.e., the starting point) at 1, as shown in FIG. 4.
The mice analyzed in Experimental Example 3-1 were treated with the peptide according to an embodiment of the present invention, and after five weeks, the mice were sacrificed. […]

Assay [4] deals with atopic dermatitis induced by capsaicin (2 W Cap). Briefly: 2 W Cap model of atopic dermatitis induced by capsaicin. It is filed as in vivo, Sprague Dawley rats. Conditions: 10 μM applied daily on back and ears. An excerpt: As such, to confirm whether the peptide according to an embodiment of the present invention can actually treat immune-related diseases by activating immunological functions in vivo, the present inventors examined whether the symptoms of atopic dermatitis can be ameliorated by treating the peptide on the animal model of atopic dermatitis. Specifically, to confirm whether the peptide has the effect of ameliorating dermatitis in a model of atopic dermatitis induced by capsaicin, the present inventors observed the degree of skin improvement after treating the peptide (NCP112) according to an embodiment of the present invention on the animals with atopy (Neo-Cap and 2 W Cap) in the dermis of atopy-induced skin tissue, the applied site in the dermis, and the site with scratches. Neo-Cap, which is a representative model of atopic dermatitis, was subcutaneously injected with capsaicin (50 mg/kg) on the back skin of neonatal rats (Sprague Dawley rats) of less than 48 hours to induce atopic dermatitis. 2 W Cap, which is a model mimicking of atopic dermatitis developed in adolescent period or adults, was subcutaneously injected twice with capsaicin (25 mg/kg) of 2-week-old rats (Sprague Dawley) to induce atopic dermatitis.
In 2 W-Cap model, the dermatitis score was measured one week after the capsaicin injection, and the control group (PBS) and NCP112 were applied daily on the back (200 μL) and both ears (50 μL) at a concentration of 10 μM, and the dermatitis score was measured at one-week intervals for two weeks, in the same manner as in Neo-Cap model.
The mice analyzed in Experimental Example 3-1 were treated with the peptide according to an embodiment of the present invention, and after five weeks, the mice were sacrificed. The skin tissue at the site where dermatitis was induced by capsaicin treatment was removed in a size of about 3 cm×3 cm and the tissue was fixed in a 4% paraformaldehyde solution for two to three days. […]

Setting [5] is: 10 μM peptide, 18 hours, 36° C., absorbance 600 nm.
Setting [6] is: versus control (PBS), week 5, FIG. 6.

In the case of Oct-KFKWRYm [NCP112], in assay [1], the “antibacterial activity among modified peptides” value is on record as “highest activity”. In addition, the antibacterial activity result in the assay on Pseudomonas aeruginosa (0 to 20 μM peptide, FIG. 1) is on record as “concentration-dependent manner”; in the assay on Staphylococcus aureus (0 to 20 μM peptide, FIG. 1) it was “concentration-dependent manner”; in assay [2] (0 to 20 μM peptide, FIG. 1), “concentration-dependent manner”; in the assay on E. coli (0 to 20 μM peptide, FIG. 1), “concentration-dependent manner”. In addition, the growth of bacteria result (in the assay on Pseudomonas aeruginosa (setting [5]); in the assay with Staphylococcus aureus (setting [5]); in assay [2] (setting [5]); with E. coli (setting [5])) was “completely inhibited the growth” throughout. In addition, the “antibacterial effect compared among the 4 kinds of bacteria” value in the assay on Pseudomonas aeruginosa (FIG. 1) was “highest antibacterial effect”. Also, the “amount of intracellular concentration increase of calcium ions” value on FPR2 (1 μM, 0.1 μM and 0.01 μM peptide, FPR2-RBL cells, FIG. 2B) was “concentration-dependent feature”. The intracellular calcium ions result on FPR2 (FPR2-RBL versus RBL and FPR1-RBL cells, FIG. 2A) was “rapidly increased specifically in FPR2-RBL cells”. Further, the “symptom of atopic dermatitis” value in assay [3] and in assay [4] was “effect of ameliorating the symptom of atopic dermatitis” throughout. For the same substance, the entries for the “epidermal layer (thickness, H&E stained skin tissue)” value in assay [3] (setting [6]) and in assay [4] (setting [6]) were “slight decrease” and “significant decrease”, respectively. Also, the skin conditions result in assay [4] was “comparable to that of the normal conditions”.
